Measured values taken from patent US20210071138A1, “GAMETOGENESIS” (United Kingdom Research and Innovation, priority 2017, published 2021).

Assays:
[1] = target: T1, PRC1 (Mus musculus, UniProt Q9CQJ4); assay: Western blot of H2Aub in mESCs cultured with PRC1 inhibitor; assay type: cell-based; settings: 50 μM PRT4165, after 6h of culture, vs DMSO control (FIG. 15b)
T1 construct: endogenous in cells; host or cells: J1 (wild type) and Dnmt-TKO mouse embryonic stem cells
T1 sequence (Q9CQJ4 1-336): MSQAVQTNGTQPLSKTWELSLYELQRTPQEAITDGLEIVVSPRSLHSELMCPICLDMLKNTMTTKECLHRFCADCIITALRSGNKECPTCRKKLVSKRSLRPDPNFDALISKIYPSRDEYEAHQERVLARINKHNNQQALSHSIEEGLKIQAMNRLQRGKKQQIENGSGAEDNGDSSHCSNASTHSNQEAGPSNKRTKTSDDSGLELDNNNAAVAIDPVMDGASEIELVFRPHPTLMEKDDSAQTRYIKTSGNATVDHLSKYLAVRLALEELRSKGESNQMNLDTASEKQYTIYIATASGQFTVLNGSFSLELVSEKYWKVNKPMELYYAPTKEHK
Experimental: (§1) J1 (wild type), Dnmt-TKO^23 and Tet1-KO Dnmt-TKO mESCs were cultured in FCS/LIF medium without feeders on 0.1% gelatin. FCS/LIF medium consists of GMEM (Gibco) supplemented with 10% FCS, 0.1 mM MEM nonessential amino acids, 2 mM 1-glutamine, 1 mM sodium pyruvate, 0.1 mM 2-mercaptoethanol and mouse LIF (ESGRO, Millipore). For inhibitor experiments, mESCs were plated at a density of 1.5×10^4/cm^2 and left overnight. The next morning medium was exchanged for FCS/LIF medium containing either 50 μM PRC1 inhibitor PRT4165 (Ismail et al., 2013) or DMSO control and cells pelleted at the indicated time for analysis.
mESCs were lysed by sonication in RIPA buffer (150 mM sodium chloride, 1.0% Triton X-100, 0.5% sodium deoxychlorate, 0.1% sodium dodecylsulfate, 50 mM Tris pH 8.0) and protease-inhibitor cocktail (Roche, 11 697 498 001). Cell debris were removed by centrifugation at 14000 g 5 min 4° C. Protein was quantified using the BCA protein assay (Thermo, 23227). 2 μg (for H2A and H2Aub) or 20 μg (for Tet1) of each protein extract was loaded onto an 15% or 8% SDS polyacrylamide gel and transferred to a PVDF membrane after electrophoresis. Membranes were blocked with 5% BSA for 1 hour and then incubated overnight at 4° C. with primary antibodies at the following dilutions: anti-H2A antibody (Abcam, 18255) 1:2000; anti-ubiquityl H2A antibody (Cell Signalling 8240) 1:2000; anti-Tet1 antibody [N1] […]

[2] = system: germline reprogramming responsive (GRR) genes; assay: RNA-Seq differential expression of GRR genes in mESCs; assay type: cell-based, mouse
Experimental: as §1, with “analysis. […]” for “analysis.”
For study of Tet1-KO and Tet1-WT PGCs, Illumina and Smart-seq adapters from the sequencing reads were first trimmed using Trimmomatic. […] RNA-Seq reads were aligned to the mouse genome (mm9, NCBI build 37) with Bowtie (version 0.12.8) and Tophat (version 2.0.2) with options -N 2 --b2-very-sensitive --b2-L 25. […] Read counts per annotated gene were computed using HTSeq (version 0.5.3p9) and expression level of each gene was quantified by computing the number of fragments detected per kilobase per million of reads (FPKM) using custom R script. […] For determining gene expression levels in wild type and Dnmt1-conditional knockout and matched wild type E10.5 PGCs, raw RNA-Seq reads were downloaded from GSE74938^24 and processed as above. […]

O=C1C(=Cc2cccnc2)C(=O)c2ccccc21 [PRT4165]
inhibition of PRC1-mediated H2A ubiquitination [1]: significant inhibition
number of GRR genes activated (of 45) upon dual inhibition of 5mC/PRC1 repression ([2]; Dnmt-TKO mESCs + 6h PRT4165 (50 μM) vs wild type + 6h DMSO (FIG. 4d, 15c)): 33 GRR genes
number of GRR genes activated (of 45) upon sole inhibition of PRC1 repression ([2]; wild type mESCs + 6h PRT4165 (50 μM) vs wild type + 6h DMSO (FIG. 4d, 15c)): 10 genes
